Tests used:
[1] = system: HMEC cells; assay: Live cell imaging with SYTOX Green, HMEC; type: cell-based, human
Excerpt: FIGS. 34A-C: Dose response curve of ERX-41 in multiple TNBC. cell lines using WST-1 assays (FIG. 34A) and CellTiter-Glo assays (FIG. 34B). […] Quantification of the number of dead cells over time seen with live cell imaging in MDAMB-231 and HMEC cells is shown.
To evaluate the generalizability of the inventors' findings, they evaluated ERX-41 in a large number of TNBC and ERa-positive cell lines.

[2] = system: parental SUM-159 xenografts; assay: Parental SUM-159 xenografts; type: in vivo, SCID mice; conditions: 10 mg/kg daily
Excerpt: FIGS. 37A-J: The molecular target of ERX-41 in TNBC is LIPA. […] (FIG. 37B) Knockout clones of LIPA, ACACA, TMEM208, SOAT1 and ARID1A were generated in MDA-MB-231 cells and evaluated for response to ERX-41 using doseresponse curves using CellTiter-Glo assays in vitro. (FIGS. 37C-D) Effect of knockout of LIPA in SUM-159 (FIG. 37C) and MDA-MB436 (FIG. 37D) on dose response curve to ERX-41 using CellTiter-Glo assays in vitro. (FIGS. 37E-F) Dose response curves of SUM-159 parental cells and clones with LIPA KO to thapsigargin (FIG. 37E) and paclitaxel (FIG. 37F). (FIGS. 37G-H) Live cell imaging studies with SYTOX Green to examine ability of 1 μM ERX-41 to induce cell death in parental SUM-159 and SUM-159 clones with LIPA KO, with quantitation (FIG. 37G) and time-lapsed photomicrographs at 0 h and 30 h ((FIG. 37H). (FIGS. 37I-J) SCID mice were implanted with either parental SUM-159 or SUM-159 clones with LIPA KO (n=6, each group) and tumors were allowed to establish (150 mm^3). Following daily intraperitoneal administration of 10 mg/kg ERX-41, tumor sizes were measured and graphed (FIG. 37I), along with mice body weights (FIG. 37J). *p<0.05. **p<0.01; ***p<0.001.
The molecular target of ERX-41 in TNBC is LIPA. […] Knockout clones of LIPA, SLC5A3, SMAP2, TMEM208, SOAT1 and ARID1A were generated in multiple TNBC cells and evaluated for response to ERX-41.

[3] = system: HMEC cells; assay: ER stress induction in HMEC cells; type: cell-based, human; conditions: normal HMEC cells
Excerpt: The basal level of expression of endoplasmic reticulum stress and unfolded protein response correlates with TK41 activity (FIG. 28). Modulation of the level of these stress proteins affects the activity of TK41. Thus, the basal level of expression of endoplasmic reticulum stress and unfolded protein response proteins may serve as a biomarker to predict response to TK41. […] Without wishing to be bound by any particular theory, the mechanism of action of TK41 may operate comprise targeting either ER or TLX and inducing endoplasmic reticulum stress, subsequent apoptosis, and blocking autophagic fusion (FIG. 30).
ERX-41 induces endoplasmic reticulum stress in TNBC. To understand the mechanism of action of ERX-41 in TNBC, the inventors performed unbiased RNA sequencing studies in three TNBC (SUM-159, MDA-MB-231, and BT549) and normal HMEC cell lines (FIGS. 36A-C). […] Heatmaps show the induction of ER stress and UPR genes in these three TNBC cell lines (FIG. 36E). Evaluation of ER stress induction was then performed with ultrastructural studies using electron microscopy (EM) studies.

[4] = Tolerability of ERX-41 in mice; type: in vivo; conditions: daily oral or intraperitoneal, up to 200 mg/kg
Protocol: (§1) Additionally, ERX-41 was detectable within 1.5 h in established subcutaneous MDA-MB-231 xenograft tumors after oral or intraperitoneal administration (FIG. 35A). […] ERX-41 decreased tumor growth, as shown by extirpated tumor sizes at the end of study (FIG. 35C and FIG. 35E). […] The inventors validated the activity of ERX-41 in four distinct TNBC PDXs established in the mammary fat pad (FIGS. 35I-P).

[5] = Pharmacokinetic studies of ERX-41; type: in vivo, mice
Protocol: (§2) FIGS. 35A-P: ERX-41 is potent against TNBC in vivo. (FIG. 35A) Following establishment of subcutaneous MDA-MB-231 xenograft tumors (200 mm^3), 10 mg/kg single dose ERX-41 was administered either by oral or intraperitoneal route. The tumor was harvested 0, 0, 5, 1, 5, 3, 6 and 24 h after drug administration and the drug levels assayed by LC-MS/MS and graphed. (FIGS. 35B-E) Following establishment of MDA-MB-231 xenografts in mammary fat pad in vivo (100 mm^3 size), daily administration of 10 mg/kg ERX-41 or vehicle control (N=8 each group) was initiated. Tumor volumes were measured using digital calipers and graphed (FIG. 35B). Tumor weights (FIG. 35C), body weights (FIG. 35D) and extirpated tumors (FIG. 35E) at end of study are also shown. (FIGS. 35F-H) Following establishment of D2A1 syngeneic xenografts in mammary fat pad in vivo (100 mm^3 size), daily administration of 10 mg/kg ERX-41 or vehicle control (N=8 each group) was initiated. Tumor volumes were measured using digital calipers and graphed (FIG. 35F) along with tumor weights (FIG. 35G) and body weights (FIG. 35H). (FIGS. 35I-P) Effect of ERX-41 on the growth (FIG. 351, FIG. 35K, FIG. 35M, FIG. 35O) and tumor weights (FIG. 35J, FIG. 35L, FIG. 35N, FIG. 35P) of four distinct TNBC PDXs compared to vehicle. *p<0.05. **p<0.01; ***p<0.001.
as §1

[6] = system: MDA-MB-231 TNBC xenografts; assay: MDA-MB-231 TNBC xenografts; type: in vivo, mice; conditions: oral 10 mg/kg/day
Protocol: FIGS. 5A-5C show the effect of TK41 on triple negative breast cancer xenograft tumors. MDA-MB-231 (TNBC; n=10) xenografts were established in nude mice and treated with either vehicle (circle markers) or 10 mg/kg/day TK41 (square markers) administered as an oral gavage in Captisol®. Comparison of mice body weights is shown in bar graphs (FIG. 5A). Photographs of individual tumors at necropsy supports the effect of TK41 on TNBC. *p<0.05; **** p<0.001.
as §2, with “(FIGS. 35F-H) Following establishment of D2A1 syngeneic xenografts in mammary fat pad in vivo (100 mm^3 size), daily administration of 10 mg/kg ERX-41 or vehicle control (N=8 each group) was initiated.” left out, “(FIGS. 35I-P) Effect of ERX-41 on the growth (FIG. 351, FIG. 35K, FIG. 35M, FIG. 35O) and tumor weights (FIG. 35J, FIG. 35L, FIG. 35N, FIG. 35P) of four distinct TNBC PDXs compared to vehicle. *p<0.05. **p<0.01; ***p<0.001.” left out

Q: With `CC(C)COc1cc(C(=O)Nc2ccc(C(=O)N[C@H]3CC[C@H](C)CC3)cc2OCC(C)C)ccc1NC(=O)c1ccc([N+](=O)[O-])c(OCCO)c1` [TK41] as the molecule, how does the “cell death in HMEC” value [1] read?
A: did not significantly induce cell death

Q: What about the “response of parental SUM-159 xenografts” value [2] of the same molecule?
A: responded significantly

Q: What about the “induction of endoplasmic reticulum stress in HMEC” value [3] of the same molecule?
A: does not induce endoplasmic reticulum stress

Q: What about the “induction of endoplasmic reticulum stress in HMEC” value ([3]; listed as ERX-41) of the same molecule?
A: unable to induce ER stress

Q: And the tolerability [4]?
A: well tolerated

Q: What about the oral bioavailability ([5]; mouse, in vivo, po) of the same molecule?
A: orally bioavailable

Q: And the “time of peak detectable levels in the plasma” value ([5]; oral, 10 mg/kg single dose)?
A: 4 h

Q: What about the “time until detectable in tumors” value ([5]; subcutaneous MDA-MB-231 xenograft tumors, oral or intraperitoneal) of the same molecule?
A: ≤ 1.5 h

Q: And the “growth of MDA-MB-231 xenografts” value [6]?
A: significantly decreased the growth

Q: And the mouse body weights [6]?
A: no alterations in mouse body weights
